In US11612604B2, “Methods of treating cancer with PLK4 inhibitors” (LUDWIG INSTITUTE FOR CANCER RESEARCH LTD, priority 2017, dated 2023):

Tests used:
[1] = system: caspase-3/7 activity in 'Sensitive' neuroblastoma and 'Not Sensitive' (RPE1, BT-12, BT-16) cell lines; test: Caspase activation assay; assay type: cell-based; settings: 150 nM centrinone, four cell cycle durations
[2] = system: breast cancer cell lines (BT474, MCF7, MDA-MB-231); test: Proliferation (passaging) assay, breast cancer cell lines; assay type: cell-based; settings: 150 nM centrinone, BT474 and MCF7 (TRIM37 locus amplified)
Experimental: Sensitivity to centrosome removal correlated with TRIM37 copy number in breast cancer as well. FIG. 3A is a graph plotting TRIM37 copy number versus expression level for breast cancer cell lines (data from the CCLE database; (Barretina et al., 2012)).
(§1) Plated cell numbers were adjusted to the cell line characteristics (doubling time and cell size). At 96-hour intervals, plates were harvested, counted and re-plated at 25,000-150,000 cells/plate. Cell counting was performed using a TC20 automated cell counter (Bio-Rad).

[3] = system: CHP134 cells harboring the G95L mutant PLK4; test: Proliferation (passaging) assay, CHP134 cells with G95L mutant PLK4; assay type: cell-based; settings: 150 nM centrinone
Experimental: (§2) All 6 of the neuroblastoma cell lines grew robustly in the presence of DMSO in 12-day passaging assays.
(§3) Cell lines: Cells were maintained in ATCC-recommended complete growth media with 100 U/mL penicillin and 100 μg/mL streptomycin at 37° C. and 5% CO2. The RPE-1 TRIM37Δ knockout cell line was previously described (Meitinger et al., 2016). The CHP134 and HCT116 TRIM37Δ knockout cell lines were generated by transfection and nucleofection, respectively, of preassembled RNPs using a TRIM37 specific gRNA ([…]). The CHP134 G95L cell line was generated as previously described (Wong et al., 2015). For generation of H2B-mRFP expressing cell lines, cells were infected with a H2B-mRFP expressing lentiviral construct (Meitinger et al., 2016). Populations of each cell line expressing H2B-mRFP were enriched by FACS. To knock down TP53 (p53), cells were infected with a lentivirus containing sh-p53 made using the plasmid shp53 pLKO.1 puro (Godar et al., Cell. 134:62-73 (2008)). Positive selection of sh-p53 expressing cells was performed 2 days after infection with 10 μg/ml puromycin.
as §1

[4] = system: CHP134 cells in which TRIM37 was deleted, p53 was knocked down, or both; test: Proliferation (12-day passaging) assay, CHP134 TRIM37 deletion / p53 knockdown cells; assay type: cell-based
Experimental: as §3, §1

[5] = system: neuroblastoma cell lines (SH-SY5Y, CHP134, IMR32, CHP212, SK-N-SH, SK-N-F1); test: Proliferation (12-day passaging) assay, neuroblastoma cell lines; assay type: cell-based; settings: 150 nM centrinone, 12 days, all 6 neuroblastoma cell lines
Experimental: as §2, §1

[6] = system: RPE1, BT-12, BT-16, CHP212, CHP134 and SK-N-F1 cells; test: Assessing mitotic phenotypes and mitotic duration by live cell imaging; assay type: cell-based; settings: for rates of anaphase failure and/or cell death during mitosis: three cell cycles in 150 nM centrinone
Experimental: To examine the effects of centrosome removal, progression through mitosis after centrosome depletion was analyzed in three control cell lines with low TRIM37 levels (RPE1, BT-12 and BT-16), and in the three cell lines with the highest TRIM37 levels (CHP212, CHP134 and SK-N-F1). All of the tested cell lines, with the exception of SK-N-F1, were p53+.
For cells that completed mitosis, the inventors measured mitotic duration to determine if they would be likely to die due to tripping the mitotic duration sensor. […] The mean duration of mitosis in control SK-N-F1 cells, a p53− neuroblastoma cell line, was longer (104.7 minutes).
Assessing mitotic phenotypes: First, the cell cycle duration of the indicated cell lines was determined for each cell line by imaging cells expressing H2B-mRFP for 48-72 hours. The mean time from the beginning the first mitosis (nuclear envelope breakdown) until the beginning of the second mitosis in each daughter cell was the cell line specific cell cycle duration. […] Cells were seeded into 96-well polystyrene plates at 10,000 cells/well, 14-16 hours before imaging. Images were acquired on a CQ1 spinning disk confocal systems (Yokogawa Electric Corporation) with an Olympus UPLSAPO40 X 40×0.95 objective and 2560×2160 sCMOS camera (Andor) at 37° C. and 5% CO2 at 2×2 binning. Image acquisition and data analysis were performed using CellVoyager software and ImageJ, respectively. 12-24 fields/well were imaged. 5×2 μm z-sections in RFP (25% power, 150 ms) channels were captured in each field at 4-minute intervals for 24 hours. Mitotic duration was measured as the interval between nuclear envelope breakdown and chromosome decondensation. Mitotic phenotypes were categorized into ‘bipolar’, ‘multipolar’, ‘cell death during mitosis’ and ‘anaphase failure’.

[7] = system: RPE1 cells and primary cell cultures; settings: cited from earlier work
[8] = system: CHP134 cells and CHP134 clones with varying TRIM37 levels; test: ATPlite cellular proliferation assay in CHP134 clones; assay type: cell-based; settings: 5 days in 125 nM centrinone, WT CHP134 cells
Experimental: After CRISPR targeting, CHP134 clones with varying TRIM37 copy numbers were isolated and the levels of TRIM37 protein were measured by quantitative western blotting. Alpha-tubulin was used as a blotting control. Clones with TRIM37 levels between 12 and 64% of the levels in the WT cell line were isolated. […] Results are expressed as the percent of the value for the equivalent DMSO-treated control and are plotted versus measured TRIM37 protein level. […] Thus, for centrinone-treated CHP134 cells, mitotic success and cell viability both decreased as TRIM37 levels increased.

[9] = system: control cell lines (HepG2, BT-12, BT-16, SK-ES-1, A673); test: Proliferation (12-day passaging) assay, control cell lines; assay type: cell-based; settings: 150 nM centrinone, 12 days, five control cell lines
Experimental: as §2, §1

SMILES: COc1c(Nc2cc(C)[nH]n2)nc(Sc2ccc(S(=O)(=O)Cc3cccc([N+](=O)[O-])c3F)cc2F)nc1N1CCOCC1 [centrinone]
- caspase activity ([1]; 'Not Sensitive' cell lines (RPE1, BT-12, BT-16)): relatively low levels
- caspase activity ([1]; three 'Sensitive' neuroblastoma cell lines): high levels of caspase activity
- sensitivity to centrosome removal in passaging assay [2]: highly sensitive
- proliferation in passaging assay [3]: proliferated in centrinone at a rate comparable to non-mutant cells in DMSO
- proliferation in passaging assay ([4]; centrinone, CHP134 with TRIM37 deleted and p53 knocked down): robust proliferation in centrinone
- proliferation in 12-day passaging assay ([4]; centrinone, CHP134 with shRNA-mediated knockdown of p53): allowed CHP134 cells to proliferate
- proliferation in 12-day passaging assay ([4]; centrinone-treated CHP134, TRIM37 deletion): enabled their proliferation
- cell number in passaging assay [5]: cell number rapidly declined to zero
- mean duration of mitosis after centrosome removal ([6]; CHP134): 257 min
- cells that fail to segregate their chromosomes ([6]; CHP134, absence of centrioles (FIG. 5A)): about 36%
- mean duration of mitosis after centrosome removal ([6]; CHP212): 221 min
- mitotic duration ([6]; control RPE1 cells and RPE1 TRIM37Δ reconstituted with wild-type TRIM37, after centrinone): substantial increase in mitotic duration
- rates of anaphase failure and/or cell death during mitosis ([6]; cell lines with high TRIM37 levels (CHP212, CHP134, SK-N-F1)): 31-74%
- rates of anaphase failure and/or cell death during mitosis ([6]; three cell lines with low TRIM37 levels (RPE1, BT-12, BT-16)): 3-14%
- response to centrinone-induced centrosome loss ([7]; RPE1 cells and 3 primary cell cultures with intact p53 pathway (Wong et al.)): stabilize p53 and arrest in G1
- effect on centriole duplication ([7]; centrinone treatment (Wong et al.)): blocks centriole duplication
- cellular proliferation (ATPlite), percent of DMSO-treated control [8]: loss in proliferation comparable to that of the two highest mutant clones
- proliferation in passaging assay [9]: continued to proliferate
